Assay results from patent US8461348B2, “Heterocyclic derivative and use thereof” (Takeda Pharmaceutical Company Limited, priority 2008, dated 2013).

What was measured:
[1] = biological target: T1, Purified sGC (Homo sapiens, UniProt Q02153); test: Measurement of sGC activation in vitro (cGMP production by purified sGC); type: biochemical; conditions: 20 min; test compound diluted to 30 μM, 10 μL/well plus equal volumes of sGC and GTP; 20 min at room temperature; cGMP without compound (1% DMSO) = 100%; read-out: cGMP amount (%) in experiment system
T1 sequence (Q02153 1-619): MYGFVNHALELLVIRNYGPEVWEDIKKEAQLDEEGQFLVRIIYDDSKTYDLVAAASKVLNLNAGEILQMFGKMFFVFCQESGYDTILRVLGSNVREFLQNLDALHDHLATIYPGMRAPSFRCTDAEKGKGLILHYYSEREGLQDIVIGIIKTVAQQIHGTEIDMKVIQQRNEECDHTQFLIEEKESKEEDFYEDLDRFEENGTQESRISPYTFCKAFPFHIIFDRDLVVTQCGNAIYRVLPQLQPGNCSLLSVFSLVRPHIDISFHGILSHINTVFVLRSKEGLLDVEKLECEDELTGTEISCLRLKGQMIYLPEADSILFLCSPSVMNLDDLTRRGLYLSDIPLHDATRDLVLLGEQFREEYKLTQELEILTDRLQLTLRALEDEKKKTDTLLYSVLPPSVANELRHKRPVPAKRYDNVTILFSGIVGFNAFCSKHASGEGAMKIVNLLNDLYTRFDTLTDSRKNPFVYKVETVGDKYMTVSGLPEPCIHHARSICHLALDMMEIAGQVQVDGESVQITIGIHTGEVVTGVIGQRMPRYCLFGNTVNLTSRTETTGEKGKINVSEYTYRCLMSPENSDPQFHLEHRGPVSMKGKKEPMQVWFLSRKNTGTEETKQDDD
T1 sequence (Q02108 1-690 partner): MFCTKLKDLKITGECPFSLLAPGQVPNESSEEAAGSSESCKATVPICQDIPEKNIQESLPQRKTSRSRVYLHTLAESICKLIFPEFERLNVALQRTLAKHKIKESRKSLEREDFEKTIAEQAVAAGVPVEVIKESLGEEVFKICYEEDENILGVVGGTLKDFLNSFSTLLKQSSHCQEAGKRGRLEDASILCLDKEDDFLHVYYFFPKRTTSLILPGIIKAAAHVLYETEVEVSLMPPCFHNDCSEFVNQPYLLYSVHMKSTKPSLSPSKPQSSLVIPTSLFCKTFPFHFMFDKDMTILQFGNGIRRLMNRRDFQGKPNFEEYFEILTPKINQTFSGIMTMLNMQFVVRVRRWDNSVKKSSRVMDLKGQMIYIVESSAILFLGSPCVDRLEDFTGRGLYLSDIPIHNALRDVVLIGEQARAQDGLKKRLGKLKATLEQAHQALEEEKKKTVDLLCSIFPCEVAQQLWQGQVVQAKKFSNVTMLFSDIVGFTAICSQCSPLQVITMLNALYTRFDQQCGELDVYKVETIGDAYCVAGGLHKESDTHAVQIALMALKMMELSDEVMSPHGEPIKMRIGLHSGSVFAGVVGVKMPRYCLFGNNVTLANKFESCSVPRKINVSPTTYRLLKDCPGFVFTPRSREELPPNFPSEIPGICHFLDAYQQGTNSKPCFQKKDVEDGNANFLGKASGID
Method: To evaluate sGC activation of each compound, the following in vitro tests were performed.
A test compound was diluted with a reaction buffer (50 mM HEPES, 5 mM MgCl2, 2 mM DTT, 0.5 mM IBMX (isobutylmethylxanthine), 0.01% BSA) to 30 μM (3% DMSO), and dispensed to a 384 well plate (manufactured by REMP) at 10 μL/well. Purified sGC was diluted with the reaction buffer to 240 ng/mL and added to the plate at 10 μL/well. Then, 120 μM GTP prepared with the reaction buffer was added to the reaction plate at 10 μL/well to initiate an enzyme reaction. After stirring at room temperature for 20 min to allow reaction, 125 mM Na2CO3 was added at 15 μL/well to quench the reaction. Thereafter, 125 mM Zn Acetate (zinc acetate) was added at 15 μL/well to allow precipitation of unreacted GTP. Then, the amount of the resulting cGMP contained in the supernatant was quantified using a CatchPoint cGMP assay kit (molecular devices). The method followed the protocol attached to the assay kit. For detection, Super Signal ELISA Femto (Thermo) was used, and the amount of luminescence was measured with ARVO (Perkinelmer). The sGC activity with addition of the compound was calculated using the amount of cGMP produced without addition of the compound (in the presence of 1% DMSO) as 100%.

[2] = system: male SHR; test: Measurement of hypotensive action in vivo in SHR; design: species or system rat; conditions: single oral administration, 30 mg/kg, 5 hr after administration
Method: Animal used was male SHR (32- to 40-week-old, SHR/Izm, Japan SLC, Inc.). Two days before drug administration, a cannula (SP10+SP45, Natsume Seisakusho Co., Ltd.) filled with heparin physiological saline (200 U/mL, Ajinomoto Pharma Co., Ltd.) was inserted from the femoral artery under anesthesia with pentobarbital Na (50 mg/kg, i.p., Kyoritsu Seiyaku Corporation) and dwelled. The other end of the cannula was subcutaneously passed and exposed on the back of the neck where it was fixed. After a recovery period, the artery dwelling cannula was connected to a pressure transducer (DTX Plus DT-XXAD, Japan Becton Dickinson) and output on a pen recorder (linear recorder WR3320-4µL, Graphtec Corporation) via a polygraph (AP-641G, Nihon Kohden Co.), and the blood pressure waveform was recorded. The heart rate was calculated from the blood pressure waveform. After stable blood pressure was obtained, a solvent or a drug was orally administered once, and average blood pressure and average heart rate were measured over time. The blood pressure was measured under fasting, and the rats were reared under free ingestion of feed and water except the blood pressure measurement day. The drug was suspended in 0.5% methylcellulose aqueous solution. The administration dose was 2 mL/kg.

- activity at 10 µM [1]: > 1000%
SMILES: O=C(O)c1ccc(Cc2nc(-c3cccc(C(F)(F)F)c3)cs2)cc1 [Example 178, 4-({4-[3-(trifluoromethyl)phenyl]-1,3-thiazol-2-yl}methyl)benzoic acid]
- hypotension after 5 hr from the administration [2]: 15.8 mmHg
